# Laboratory results published in ChEMBL document CHEMBL3885861, “Open TG-GATES”.
# Species on record: Rattus norvegicus
# Test: Open TG-GATES - Regimen: Single
# Type: toxicity, organism-based, Sprague-Dawley
# Set-up: regimen Single, gender Male, age 6 weeks
# Settings: in vivo, po, route gavage; for APTT / Bas / Eos / Fbg / Hb / Ht / Lym / MCH / MCHC / MCV / Mono / Neu / PT / Plat / Ret / WBC: tissue Blood; for KIDNEY_L / KIDNEY_R / KIDNEY_TOTAL: tissue Kidney; for LIVER: tissue Liver; for ALP / ALT / AST / BUN / CRE / Ca / DBIL / GLC / IP / K / LDH / Na / PL / RALB / TBIL / TC / TG / TP / gamma-GTP: tissue Plasma
# [1] = 30 mg/kg, 3 h, dose level Middle
# [2] = 30 mg/kg, 6 h, dose level Middle
# [3] = 30 mg/kg, 9 h, dose level Middle
# [4] = 30 mg/kg, 24 h, dose level Middle
# [5] = 100 mg/kg, 3 h, dose level High
# [6] = 100 mg/kg, 6 h, dose level High
# [7] = 100 mg/kg, 9 h, dose level High
# [8] = 100 mg/kg, 24 h, dose level High
smiles,measurement,setting,value
CN(C)CCCN1c2ccccc2CCc2ccc(Cl)cc21 [CLOMIPRAMINE],APTT,[1],16.4 s
same,Bas,[1],0.2%
same,Eos,[1],0.6%
same,Fbg,[1],254 mg/dL
same,Hb,[1],14.2 g/dL
same,Ht,[1],43.6%
same,Lym,[1],71.2%
same,MCH,[1],21 pg
same,MCHC,[1],32.6%
same,MCV,[1],64.5 fL
same,Mono,[1],2.8%
same,Neu,[1],24%
same,PT,[1],13.6 s
same,Plat,[1],115.5 x10_4/uL
same,Ret,[1],7.9%
same,WBC,[1],95.4 x10_2/uL
same,KIDNEY_L,[1],1 g
same,KIDNEY_R,[1],1 g
same,KIDNEY_TOTAL,[1],1.9 g
same,LIVER,[1],9.7 g
same,ALP,[1],1675.2 IU/L
same,ALT,[1],38.4 IU/L
same,AST,[1],77.8 IU/L
same,BUN,[1],9.8 mg/dL
same,CRE,[1],0.2 mg/dL
same,Ca,[1],10.8 mg/dL
same,DBIL,[1],0.016 mg/dL
same,GLC,[1],187.8 mg/dL
same,IP,[1],9.6 mg/dL
same,K,[1],4 meq/L
same,LDH,[1],96 IU/L
same,Na,[1],141 meq/L
same,PL,[1],145.4 mg/dL
same,RALB,[1],2.5 g/dL
same,TBIL,[1],0.062 mg/dL
same,TC,[1],75.2 mg/dL
same,TG,[1],78.8 mg/dL
same,TP,[1],5.2 g/dL
same,gamma-GTP,[1],1 IU/L
same,TERMINAL_BW,[2],214.2 g
same,APTT,[2],15.9 s
same,Bas,[2],0.2%
same,Eos,[2],0.8%
same,Fbg,[2],241.2 mg/dL
same,Hb,[2],14.1 g/dL
same,Ht,[2],43.9%
same,Lym,[2],78.2%
same,MCH,[2],20.2 pg
same,MCHC,[2],32.2%
same,MCV,[2],62.8 fL
same,Mono,[2],2.6%
same,Neu,[2],17.2%
same,PT,[2],13.7 s
same,Plat,[2],114.1 x10_4/uL
same,Ret,[2],7.6%
same,WBC,[2],82.3 x10_2/uL
same,KIDNEY_L,[2],1 g
same,KIDNEY_R,[2],1 g
same,KIDNEY_TOTAL,[2],2 g
same,LIVER,[2],9.2 g
same,ALP,[2],1672.6 IU/L
same,ALT,[2],39.2 IU/L
same,AST,[2],73.8 IU/L
same,BUN,[2],7.2 mg/dL
same,CRE,[2],0.2 mg/dL
same,DBIL,[2],0.02 mg/dL
same,GLC,[2],186.4 mg/dL
same,IP,[2],9.9 mg/dL
same,K,[2],4.2 meq/L
same,LDH,[2],75.4 IU/L
same,Na,[2],141.4 meq/L
same,PL,[2],134.6 mg/dL
same,RALB,[2],2.5 g/dL
same,TBIL,[2],0.068 mg/dL
same,TC,[2],74.4 mg/dL
same,TG,[2],55.8 mg/dL
same,TP,[2],5.3 g/dL
same,gamma-GTP,[2],1.2 IU/L
same,TERMINAL_BW,[3],211.3 g
same,APTT,[3],17.1 s
same,Bas,[3],0%
same,Eos,[3],1.2%
same,Fbg,[3],273.6 mg/dL
same,Hb,[3],13.9 g/dL
same,Ht,[3],42.6%
same,Lym,[3],77.8%
same,MCH,[3],20.4 pg
same,MCHC,[3],32.6%
same,MCV,[3],62.6 fL
same,Mono,[3],2.2%
same,Neu,[3],17.8%
same,PT,[3],13.8 s
same,Plat,[3],124.6 x10_4/uL
same,Ret,[3],7.7%
same,WBC,[3],83.2 x10_2/uL
same,KIDNEY_L,[3],1 g
same,KIDNEY_R,[3],0.9 g
same,KIDNEY_TOTAL,[3],1.9 g
same,LIVER,[3],8.5 g
same,ALP,[3],1468.8 IU/L
same,ALT,[3],36.2 IU/L
same,AST,[3],71.8 IU/L
same,BUN,[3],7.4 mg/dL
same,CRE,[3],0.2 mg/dL
same,Ca,[3],10.5 mg/dL
same,DBIL,[3],0.024 mg/dL
same,GLC,[3],174 mg/dL
same,IP,[3],10.5 mg/dL
same,K,[3],4.1 meq/L
same,LDH,[3],86.4 IU/L
same,Na,[3],140.6 meq/L
same,PL,[3],143 mg/dL
same,RALB,[3],2.6 g/dL
same,TBIL,[3],0.076 mg/dL
same,TC,[3],83.4 mg/dL
same,TG,[3],34.2 mg/dL
same,TP,[3],5.4 g/dL
same,gamma-GTP,[3],1 IU/L
same,TERMINAL_BW,[4],231.8 g
same,APTT,[4],16.9 s
same,Bas,[4],0%
same,Eos,[4],0.6%
same,Fbg,[4],247.6 mg/dL
same,Ht,[4],41.2%
same,Lym,[4],81.6%
same,MCH,[4],20.6 pg
same,MCHC,[4],32.3%
same,MCV,[4],63.9 fL
same,Mono,[4],2.6%
same,Neu,[4],14%
same,PT,[4],13.8 s
same,Plat,[4],116.6 x10_4/uL
same,Ret,[4],7.1%
same,WBC,[4],83.8 x10_2/uL
same,KIDNEY_L,[4],1 g
same,KIDNEY_R,[4],1 g
same,KIDNEY_TOTAL,[4],2.1 g
same,LIVER,[4],10.5 g
same,ALP,[4],2253 IU/L
same,ALT,[4],44.2 IU/L
same,AST,[4],76.8 IU/L
same,BUN,[4],13.2 mg/dL
same,CRE,[4],0.2 mg/dL
same,Ca,[4],10.9 mg/dL
same,DBIL,[4],0.028 mg/dL
same,GLC,[4],179 mg/dL
same,IP,[4],8 mg/dL
same,K,[4],4.1 meq/L
same,LDH,[4],93.8 IU/L
same,Na,[4],141.4 meq/L
same,PL,[4],159 mg/dL
same,RALB,[4],2.6 g/dL
same,TBIL,[4],0.062 mg/dL
same,TC,[4],80.2 mg/dL
same,TG,[4],115.2 mg/dL
same,TP,[4],5.5 g/dL
same,gamma-GTP,[4],1.2 IU/L
same,TERMINAL_BW,[5],215.5 g
same,APTT,[5],16.9 s
same,Bas,[5],0%
same,Eos,[5],0.8%
same,Fbg,[5],257.8 mg/dL
same,Hb,[5],14.1 g/dL
same,Ht,[5],43.3%
same,Lym,[5],77.8%
same,MCH,[5],21.2 pg
same,MCHC,[5],32.6%
same,MCV,[5],64.9 fL
same,Mono,[5],3.4%
same,Neu,[5],17.2%
same,PT,[5],13.5 s
same,Plat,[5],125.6 x10_4/uL
same,Ret,[5],8%
same,WBC,[5],69.8 x10_2/uL
same,KIDNEY_L,[5],1 g
same,KIDNEY_R,[5],0.9 g
same,KIDNEY_TOTAL,[5],1.9 g
same,LIVER,[5],10.1 g
same,ALP,[5],1835 IU/L
same,ALT,[5],42.8 IU/L
same,AST,[5],76.6 IU/L
same,BUN,[5],7.4 mg/dL
same,CRE,[5],0.1 mg/dL
same,Ca,[5],10.5 mg/dL
same,DBIL,[5],0.036 mg/dL
same,GLC,[5],188.8 mg/dL
same,IP,[5],9.6 mg/dL
same,K,[5],3.9 meq/L
same,LDH,[5],116.6 IU/L
same,Na,[5],142.2 meq/L
same,PL,[5],147 mg/dL
same,RALB,[5],2.5 g/dL
same,TBIL,[5],0.068 mg/dL
same,TC,[5],73.8 mg/dL
same,TG,[5],85.4 mg/dL
same,TP,[5],5.3 g/dL
same,gamma-GTP,[5],1 IU/L
same,TERMINAL_BW,[6],210.3 g
same,APTT,[6],17.8 s
same,Bas,[6],0%
same,Eos,[6],1%
same,Fbg,[6],276 mg/dL
same,Hb,[6],14.2 g/dL
same,Ht,[6],44%
same,Lym,[6],75.6%
same,MCH,[6],21.3 pg
same,MCHC,[6],32.2%
same,MCV,[6],66.2 fL
same,Mono,[6],2.8%
same,Neu,[6],20%
same,PT,[6],13.9 s
same,Plat,[6],125.1 x10_4/uL
same,Ret,[6],8.2%
same,WBC,[6],69.9 x10_2/uL
same,KIDNEY_L,[6],1 g
same,KIDNEY_R,[6],1 g
same,KIDNEY_TOTAL,[6],2 g
same,LIVER,[6],9.2 g
same,ALP,[6],1949.8 IU/L
same,ALT,[6],40.6 IU/L
same,AST,[6],76.2 IU/L
same,BUN,[6],6.8 mg/dL
same,CRE,[6],0.1 mg/dL
same,Ca,[6],10.4 mg/dL
same,DBIL,[6],0.042 mg/dL
same,GLC,[6],187.4 mg/dL
same,IP,[6],9.7 mg/dL
same,K,[6],4.1 meq/L
same,LDH,[6],103.8 IU/L
same,Na,[6],142.8 meq/L
same,PL,[6],134.6 mg/dL
same,RALB,[6],2.5 g/dL
same,TBIL,[6],0.064 mg/dL
same,TC,[6],71.4 mg/dL
same,TG,[6],53 mg/dL
same,TP,[6],5.2 g/dL
same,gamma-GTP,[6],1 IU/L
same,TERMINAL_BW,[7],208.4 g
same,APTT,[7],16.6 s
same,Bas,[7],0%
same,Eos,[7],1%
same,Fbg,[7],270.4 mg/dL
same,Hb,[7],14.1 g/dL
same,Ht,[7],43.6%
same,Lym,[7],71.2%
same,MCH,[7],21 pg
same,MCHC,[7],32.3%
same,MCV,[7],65.1 fL
same,Mono,[7],2%
same,Neu,[7],25.2%
same,PT,[7],13.9 s
same,Plat,[7],144.8 x10_4/uL
same,Ret,[7],8.1%
same,WBC,[7],72.8 x10_2/uL
same,KIDNEY_L,[7],1 g
same,KIDNEY_R,[7],1 g
same,KIDNEY_TOTAL,[7],2 g
same,LIVER,[7],9 g
same,ALP,[7],1702 IU/L
same,ALT,[7],32.4 IU/L
same,AST,[7],71.2 IU/L
same,BUN,[7],6.4 mg/dL
same,CRE,[7],0.1 mg/dL
same,Ca,[7],10.2 mg/dL
same,DBIL,[7],0.04 mg/dL
same,GLC,[7],194.6 mg/dL
same,IP,[7],9.8 mg/dL
same,K,[7],3.7 meq/L
same,LDH,[7],91 IU/L
same,Na,[7],142.6 meq/L
same,PL,[7],137.4 mg/dL
same,RALB,[7],2.5 g/dL
same,TBIL,[7],0.064 mg/dL
same,TC,[7],72.8 mg/dL
same,TG,[7],39 mg/dL
same,TP,[7],5.2 g/dL
same,gamma-GTP,[7],1 IU/L
same,TERMINAL_BW,[8],217.7 g
same,APTT,[8],19.3 s
same,Bas,[8],0.2%
same,Eos,[8],1%
same,Fbg,[8],278.8 mg/dL
same,Hb,[8],14.1 g/dL
same,Ht,[8],43.4%
same,Lym,[8],78.2%
same,MCH,[8],20.6 pg
same,MCHC,[8],32.5%
same,MCV,[8],63.5 fL
same,Mono,[8],2.6%
same,Neu,[8],17.4%
same,PT,[8],13.5 s
same,Plat,[8],144.2 x10_4/uL
same,Ret,[8],7.4%
same,WBC,[8],91.7 x10_2/uL
same,KIDNEY_L,[8],1 g
same,KIDNEY_R,[8],1 g
same,KIDNEY_TOTAL,[8],2 g
same,LIVER,[8],9.6 g
same,ALP,[8],1855 IU/L
same,ALT,[8],43 IU/L
same,AST,[8],69.8 IU/L
same,BUN,[8],15.4 mg/dL
same,CRE,[8],0.2 mg/dL
same,Ca,[8],10.8 mg/dL
same,DBIL,[8],0.046 mg/dL
same,GLC,[8],180.6 mg/dL
same,IP,[8],8.3 mg/dL
same,K,[8],4 meq/L
same,LDH,[8],92 IU/L
same,Na,[8],141.8 meq/L
same,PL,[8],168.4 mg/dL
same,RALB,[8],2.7 g/dL
same,TBIL,[8],0.056 mg/dL
same,TC,[8],98.2 mg/dL
same,TG,[8],96.2 mg/dL
same,TP,[8],5.7 g/dL
same,gamma-GTP,[8],1 IU/L
